Laboratory results taken from patent US4409238A, “Insecticides and insecticidal compositions” (Kuraray Co., Ltd., priority 1977, dated 1983).

Key:
[1] = system: houseflies (Musca domestica); test: Mortality test against houseflies by topical application method (Test Example 1); format: in vivo; settings: female adult houseflies, 24 hours, 25° C.
Experimental: Each test compound was accurately weighed and a 1% solution and a 0.1% solution of the sample in acetone were prepared. A 1 μl portion of either of the above solutions was micropipetted onto the thoracic dorsal part of each female adult housefly (Musca domestica) under ether anaesthesia and the fly was released in a high-walled dish together with feed. The dish was covered with a metal-wire net and maintained at 25° C. After 24 hours, the test flies were inspected for deaths and the mortality (%) was calculated. Thirty test flies were used per concentration group.

[2] = Light stability test (Test Example 4); format: physicochemical; settings: direct sunlight between glass plates, 12° C., relative to aluminum foil-covered control; for remaining at 4 h: read-out: Residue (%) Exposure time 4 hrs.; for remaining at 8 h: read-out: Residue (%) Exposure time 8 hrs.
Experimental: Into 2.0 ml of acetone were dissolved 80 mg of each test compound. A 5 μl portion of the solution was taken and spread on a glass plate (Micro Standard Cover Glass, 18 m/m No. 1, 200 pcs, Matsunami Glass Ind., Ltd.) and the acetone was evaporated. Then, a similar glass plate was superimposed on the above plate in such a manner that the test liquid was sandwitched. The specimen was exposed to direct sunlight at an atmospheric temperature of 12° C. for a predetermined exposure time. As an unexposed control, a similar specimen was covered with an aluminum foil. The test liquid was washed away with 1.0 ml of methanol containing 0.04% of dioctyl phthalate as an internal reference and high-speed liquid chromatography was carried out on the washings to determine the residual amount of the test compound. The residue (%) was calculated with the value for the aluminum foil-covered control specimen as the standard.

[3] = system: guppies; test: Fish toxicity test (Test Example 6); format: in vivo; settings: female guppies, 48 hours, 25° C.; concentration at which 90% or more were killed
Experimental: To 5 l of water were added 250 mg of sorpol SM-200 (registered trademark, Toho Chemical Co., Ltd.) or Tween-20 (commercial product) as an emulsifier (surfactant) as well as 2.5 ml of an acetone solution containing one of the test compounds in a predetermined concentration. The mixture was stirred well to prepare a test water. Ten female guppies from 3 to 4 months of age were released into the test water and maintained at 25° C. The concentration of the test compound at which 90% or more of the guppies were killed during the ensuring 48 hours was determined. (This concentration is referred to as LC90).

[4] = system: cockroaches (Blattella germanica); test: Mortality test against cockroaches by topical application method (Test Example 3); format: in vivo; settings: 1 μl of 1% solution in acetone, female cockroaches, 24 hours, 25° C.
Experimental: Each test compound was accurately weighed and made in a 1% solution in acetone. Then, 1 μl of the above solution was micropipetted onto the abdominal part of each female cockroach (Blattella germanica) under ether anaesthesia. The roaches were released in a high-walled dish together with feed and, after the disk was covered with a metal wire net, same was maintained at 25° C. Fifteen roaches per group were employed. After 24 hours, the test roaches were inspected for deaths and the mortality (%) for each group was calculated.

[5] = system: green rice leafhoppers; test: Spray test on rice seedlings against green rice leafhoppers (Utility Example 1); format: in vivo, green rice leafhoppers (Nephotettix cincticeps); settings: 30% emulsifiable concentrate (Formulation Example 5) diluted 300-fold, 10 ml/pot, 24 hours
Experimental: To 30 parts of each of Compounds [1], [2], [5] to [13] and [17] to [19] was added 50 parts of xylene and 20 parts of Sorpol SM-200 (a surfactant, trademark of Toho Chemical Co., Ltd.). The mixture was stirred well and dissolved to obtain a 30% emulsifiable concentrate.
The emulsifiable concentrate prepared from Compounds [1], [2], [6], [7], [9], [10], [12] and [13] in Formulation Example 5 were each diluted 300-fold with water. Then, each of the dilutions was sprayed over rice seedlings 25 days after sowing at the rate of 10 ml/pot. The pot was covered with a wire-net and 15 green rice leafhoppers were released under the net. After 24 hours, the leafhoppers were examined for deaths. The mortality (%) was not less than 90% for each of Compounds [1], [2], [6], [7], [9], [10], [12] and [13].

[6] = Hydrolysis resistance test (Test Example 5); format: physicochemical; settings: acetone/water, reflux for 2 days; read-out: Residue (%)
Experimental: Into about 8 ml of acetone were dissolved 100 mg of each test compound and, then, 1.0 g of water was added to this solution to prepare a mixed solution. This mixed solution was refluxed for 2 days. After concentration to about one half of the original volume and with the addition of dioctyl phthalate as an internal reference, the residual amount of the compound was determined by high-speed liquid chromatography. The residue (%) was then calculated.

[7] = system: houseflies; test: Settling mist mortality test against houseflies, oil preparations of Formulation Example 2 (Utility Example 3); format: in vivo, houseflies (Musca domestica); settings: oil preparation with 0.1 part compound and 0.1 part resmethrin per 100 parts, 24 hours
Experimental: To 0.1 part of each of Compounds [1] to [17] was added 0.1 part of resmethrin, followed by the addition of a sufficient amount of kerosene to make 100 parts. The mixture was stirred to obtain an oil preparation of each compound.
By the settling mist method, a mortality test against houseflies was carried out using the oil preparations made in Formulation Example 2 from Compounds [1], [2], [5] to [11] and [17]. After 24 hours, the flies were examined for deaths. The mortality (%) was not less than 90% for each of Compounds [1], [2], [5] to [11] and [17].

[8] = system: house-flies; test: Settling mist mortality test against houseflies, oil preparations of Formulation Example 3 (Utility Example 4); format: in vivo, houseflies (Musca domestica); settings: oil preparation with 0.1 part compound and 0.08 part permethrin per 100 parts, 24 hours
Experimental: To 0.1 part of each of Compounds [1] to [28] was added 0.08 part of permethrin, followed by the addition of a sufficient amount of kerosene to make 100 parts. The mixture was stirred to obtain an oil preparation of each compound.
By the settling mist method, a mortality test against house-flies was carried out using the oil preparations obtained in Formulation Example 3 from Compounds [1], [2], [5] to [11] and [17]. After 24 hours, the flies were examined for deaths. The mortality (%) was not less than 90% for each of Compounds [1], [2], [5] to [11] and [17].

[9] = system: green rice leafhoppers (Nephotettix cincticeps); test: Mortality test against green rice leafhoppers by topical application method (Test Example 2); format: in vivo; settings: 0.1% solution in acetone, female adults, 24 hours, 25° C.
Experimental: Each test compound was accurately weighed and an 0.1% solution in acetone was prepared. Female adults of green rice leafhopper (Nephotettix cincticeps) were anaesthetized with carbon dioxide gas and 0.5 µl of the above solution was micropipetted onto the thoracic abdominal part of each leafhopper. Then, the test leafhoppers were kept at 25° C. with access to rice plant seedlings. Each group comprised 15 green rice leafhoppers. After 24 hours, the leafhoppers were inspected for deaths and the mortality (%) was calculated for each compound.

Row | Structure (SMILES) | Mortality (%) 1 μg/fly [1] [%] | remaining at 4 h [2] [%] | remaining at 8 h [2] [%] | LC90 [3] | Mortality (%) 10 μg/fly [1] [%] | mortality at 1 %, 0.01 mg [4] [%] | Mortality (%) [5] | remaining at 48 h [6] [%] | Mortality (%) [7] | Mortality (%) [8] | mortality at 0.1 % [9] [%]
1 | C=CCC1=C(C)C(OC(=O)C2C(C=C(C)C)C2(C)C)CC1=O (stereo not drawn) [Allethrin, reference compound] | 50 | 35 | 17 | Not more than 0.5 ppm | – | – | – | – | – | – | –
2 | CC(C)C(CC=C(Cl)Cl)C(=O)OCc1cccc(Oc2ccccc2)c1 (stereo not drawn) [Compound [5], 3-Phenoxybenzyl α-(3,3-dichloroallyl)isovalerate] | 100 | 99 | 98 | – | 100 | – | – | – | – | – | –
3 | CC(C)C(CC=C(Cl)Cl)C(=O)OC(C#N)c1cccc(Oc2ccccc2)c1 (stereo not drawn) [Compound [6], α-Cyano-3-phenoxybenzyl α-(3,3-dichloroallyl)isovalerate] | 100 | 92 | 92 | – | 100 | 100 | not less than 90% | > 90 | – | – | –
4 | C#CC(OC(=O)C(CC=C(Cl)Cl)C(C)C)c1cccc(Oc2ccccc2)c1 (stereo not drawn) [Compound [7], α-Ethynyl-3-phenoxybenzyl α-(3,3-dichloroallyl)isovalerate] | 90 | 96 | 96 | – | 100 | 80 | not less than 90% | > 90 | – | – | –
5 | CC(C)C(CC=C(Br)Br)C(=O)OCc1cccc(Oc2ccccc2)c1 (stereo not drawn) [Compound [8], 3-Phenoxybenzyl α-(3,3-dibromoallyl)isovalerate] | 100 | – | – | – | 100 | – | – | – | – | – | –
6 | CC(C)C(CC=C(Br)Br)C(=O)OC(C#N)c1cccc(Oc2ccccc2)c1 (stereo not drawn) [Compound [9], α-Cyano-3-phenoxybenzyl α-(3,3-dibromoallyl)isovalerate] | 100 | – | – | – | 100 | – | not less than 90% | – | – | – | –
7 | C#CC(OC(=O)C(CC=C(Br)Br)C(C)C)c1cccc(Oc2ccccc2)c1 (stereo not drawn) [Compound [10], α-Ethynyl-3-phenoxybenzyl α-(3,3-dibromoallyl)isovalerate] | 100 | 97 | 97 | ≥ 10 ppm | 100 | – | not less than 90% | – | – | – | –
8 | CC(C)(CC=C(Cl)Cl)CC(=O)OCc1cccc(Oc2ccccc2)c1 [Compound [11], 3-Phenoxybenzyl β-(3,3-dichloroallyl)isovalerate] | 100 | 100 | 96 | – | 100 | – | – | > 90 | – | – | –
9 | CC(C)(CC=C(Cl)Cl)CC(=O)OC(C#N)c1cccc(Oc2ccccc2)c1 (stereo not drawn) [Compound [12], α-Cyano-3-phenoxybenzyl β-(3,3-dichloroallyl)isovalerate] | 100 | 92 | 90 | – | 100 | – | not less than 90% | > 90 | – | – | –
10 | C#CC(OC(=O)CC(C)(C)CC=C(Cl)Cl)c1cccc(Oc2ccccc2)c1 (stereo not drawn) [Compound [13], α-Ethynyl-3-phenoxybenzyl β-(3,3-dichloroallyl)isovalerate] | 90 | 100 | 100 | – | 100 | – | not less than 90% | – | – | – | –
11 | CC(C)(CC(=O)OCc1cccc(Oc2ccccc2)c1)C(Cl)C=C(Cl)Cl (stereo not drawn) [Compound [17], 3-Phenoxybenzyl β-(1,3,3-trichloroallyl)isovalerate] | 100 | 100 | 100 | – | 100 | – | – | – | not less than 90% | not less than 90% | –
12 | CC(C)(CC(=O)OC(C#N)c1cccc(Oc2ccccc2)c1)C(Cl)C=C(Cl)Cl (stereo not drawn) [Compound [18], α-Cyano-3-phenoxybenzyl β-(1,3,3-trichloroallyl)isovalerate] | – | 98 | 97 | – | 100 | – | – | > 90 | – | – | –
13 | C#CC(OC(=O)CC(C)(C)C(Cl)C=C(Cl)Cl)c1cccc(Oc2ccccc2)c1 (stereo not drawn) [Compound [19], α-Ethynyl-3-phenoxybenzyl β-(1,3,3-trichloroallyl)isovalerate] | – | 97 | 92 | – | 100 | – | – | – | – | – | –
14 | C=CCC(C(=O)OCc1cccc(Oc2ccccc2)c1)C(C)C (stereo not drawn) [reference compound] | 0 | – | – | – | 0 | – | – | – | – | – | –
15 | CC(C)=CCC(C(=O)OCc1cccc(Oc2ccccc2)c1)C(C)C (stereo not drawn) [reference compound] | 0 | – | – | – | – | – | – | – | – | – | –
16 | CC(C)C(C=C(Cl)Cl)C(=O)OCc1cccc(Oc2ccccc2)c1 (stereo not drawn) [reference compound] | – | – | – | – | – | – | – | – | – | – | 40
